US7449461B2, “Benzathiazol-acetamides” (Hoffmann-La Roche Inc., priority 2004, dated 2008)

Experiments:
[1] = target: T1, human adenosine A2A receptor (Homo sapiens, UniProt P29274); test: [3H]-SCH-58261 binding assay on human adenosine A2A receptor membranes (SPA); conditions: recombinant receptor expressed in CHO cells, radioligand [3H]-SCH-58261 1 nM, Ki by Cheng-Prussoff equation from IC50; for Ki: read-out: hA2 (pKi) (converted)
T1 construct: expressed in transfected cells; host or cells: CHO cells, Semliki Forest virus expression system; washed membrane preparation
T1 sequence (P29274 whole entry): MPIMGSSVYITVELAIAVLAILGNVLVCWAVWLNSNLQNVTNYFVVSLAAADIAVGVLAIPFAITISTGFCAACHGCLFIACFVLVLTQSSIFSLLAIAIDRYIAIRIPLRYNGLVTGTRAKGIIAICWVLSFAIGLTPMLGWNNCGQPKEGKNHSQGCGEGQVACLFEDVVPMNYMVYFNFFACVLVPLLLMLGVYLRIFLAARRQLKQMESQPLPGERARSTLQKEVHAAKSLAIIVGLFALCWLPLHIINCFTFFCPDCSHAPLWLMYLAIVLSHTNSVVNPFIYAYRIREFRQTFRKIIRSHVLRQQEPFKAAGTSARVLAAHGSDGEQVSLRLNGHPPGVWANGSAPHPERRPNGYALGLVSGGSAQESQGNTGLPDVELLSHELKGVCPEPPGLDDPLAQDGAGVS
Method: Human Adenosine A2A Receptor
The human adenosine A2A receptor was recombinantly expressed in Chinese hamster ovary (CHO) cells using the semliki forest virus expression system. Cells were harvested, washed twice by centrifugation, homogenized and again washed by centrifugation. The final washed membrane pellet was suspended in a Tris (50 mM) buffer containing 120 mM NaCl, 5 mM KCl, 2 mM CaCl2 and 10 mM MgCl2 (pH 7.4) (buffer A). The [^3H]-SCH-58261 (Dionisotti et al., 1997, Br J Pharmacol 121, 353; 1 nM) binding assay was carried out in 96-well plates in the presence of 2.5 μg of membrane protein, 0.5 mg of Ysi-poly-1-lysine SPA beads and 0.1 U adenosine deaminase in a final volume of 200 μl of buffer A. Non-specific binding was defined using xanthine amine congener (XAC; 2 μM). Compounds were tested at 10 concentrations from 10 μM-0.3 nM. All assays were conducted in duplicate and repeated at least two times. Assay plates were incubated for 1 hour at room temperature before centrifugation and then bound ligand determined using a Packard Topcount scintillation counter. IC50 values were calculated using a non-linear curve fitting program and Ki values calculated using the Cheng-Prussoff equation.

Structure (SMILES)	Ki [1] [nM]	melting point [°C]	hA2 (pKi) [1]
COc1ccc(N2CCOCC2)c2sc(NC(=O)C(C)C34CCC(CC3)O4)nc12 (racemic) [Example 7, (rac)-N-(4-Methoxy-7-morpholin-4-yl-benzothiazol-2-yl)-2-(7-oxa-bicyclo[2.2.1]hept-1-yl)-propionamide]	20	195 to 197	–
COc1ccc(N2CCOCC2)c2sc(NC(=O)C[C@H]3CC[C@@H](OC(C)=O)C3)nc12 (single isomer, unassigned) [Example 1, (cis)-2-(3-Acetoxy-cyclopentyl)-N-(4-methoxy-7-morpholin-4-yl-benzothiazol-2-yl)-acetamide]	10	171 to 172	–
COc1ccc(N2CCOCC2)c2sc(NC(=O)C[C@H]3CC[C@@H](OC(C)=O)C3)nc12 (single isomer, unassigned) [Example 2, (cis)-2-(3-Acetoxy-cyclopentyl)-N-(4-methoxy-7-morpholin-4-yl-benzothiazol-2-yl)-acetamide]	6.31	172 to 173	–
COc1ccc(N2CCOCC2)c2sc(NC(=O)C[C@H]3CC[C@@H](O)C3)nc12 (single isomer, unassigned) [Example 3, (−)-(cis)-2-(3-Hydroxy-cyclopentyl)-N-(4-methoxy-7-morpholin-4-yl-benzothiazol-2-yl)-acetamide]	6.31	168 to 171	–
COc1ccc(N2CCOCC2)c2sc(NC(=O)C[C@H]3CC[C@@H](O)C3)nc12 (single isomer, unassigned) [Example 4, (+)-(cis)-2-(3-Hydroxy-cyclopentyl)-N-(4-methoxy-7-morpholin-4-yl-benzothiazol-2-yl)-acetamide]	–	167 to 170	8.2
COc1ccc(N2CCOCC2)c2sc(NC(=O)C[C@H]3CC[C@@H](O)CC3)nc12 [Example 5, (cis)-2-(4-Hydroxy-cyclohexyl)-N-(4-methoxy-7-morpholin-4-yl-benzothiazol-2-yl)-acetamide]	6.31	212 to 216	–
COc1ccc(N2CCOCC2)c2sc(NC(=O)C[C@H]3CC[C@H](O)CC3)nc12 [Example 6, (trans)-2-(4-Hydroxy-cyclohexyl)-N-(4-methoxy-7-morpholin-4-yl-benzothiazol-2-yl)-acetamide]	3.16	190 to 192	–
